From ChEMBL document CHEMBL1154024, “Synthesis of radiolabeled cytarabine conjugates” (2009)
Calls of active or inactive are those of the source. No cut-off for these calls is given here.

Tests used:
[1] = tested on: NCI-H441; experiment: Cytotoxicity against human H441 cells after 72 hrs by trypan blue cell exclusion assay; format: functional, cell-based
[2] = Cytotoxicity in human H441 cells at 2 uM after 72 hrs by trypan blue cell exclusion assay; format: functional, NCI-H441
[3] = tested on: NCI-H441; experiment: Cytotoxicity against human H441 cells by serum lactate dehydrogenase assay; format: functional, cell-based
[4] = tested on: NCI-H441; experiment: Cytotoxicity against human H441 cells by glucosaminidase assay; format: functional, cell-based

| Structure (SMILES) | Activity [1] | Activity [2] [%] | Activity [3] | Activity [4] |
| --- | --- | --- | --- | --- |
| Nc1ccn([C@@H]2O[C@H](CO)[C@@H](O)[C@@H]2O)c(=O)n1 [CYTARABINE] | Dose-dependent effect | 55 | Active | Active |
| NNc1ccc(C(=O)Nc2ccn([C@@H]3O[C@H](CO)[C@@H](O)[C@@H]3O)c(=O)n2)cn1 | Dose-dependent effect | 55 | Active | Active |
